Data: patent publication US20140296190A1, “MARKETING THE USE OF 25-HYDROXYVITAMIN D3 TO ENHANCE COGNITION” (DSM IP ASSETS B.V., priority 2013, published 2014)
Where two headings read alike, the source gives them in different places.

How the values were obtained:
[1] = design: species or system human; conditions: in vivo
Excerpt: The design is a parallel group, randomized, placebo-controlled, double-blind study similar to that of Example 2, above, except that the participants are healthy adults under 65. The duration of supplementation is 6 months (180 days). Group size is chosen so that a statistically significant difference, if present, may be observed between placebo and test groups.
Participants are randomly allocated to either the 25-OH D3 group, Vitamin D3 group, (Vitamin D3+25 OH D3) group or placebo group. Double-blind randomization is carried out by means of a label code associated with a specific participant ID number, whose meaning is known only to the supplier. Participants are allocated randomly to these numbers.
For baseline (Day 0) the following tests are performed: Physical examination, vital signs (blood pressure, heart rate), demographics, clinical laboratory, FFQ, serum: 25-OH D3, 24,25(OH)2D, 1,25(OH)2D3, Vitamin D3, calcium, albumin, creatinine, fasting glucose, PTH; urine: calcium, creatinine; executive function tests (see below). Baseline evaluation is followed by the randomization of the subjects. From Day 2 on, they start to take the study compounds. […]

[2] = test system: frail elderly with a low Vitamin D status; test: Example 2 placebo-controlled trial: executive function tests in frail elderly; type: in vivo, human; conditions: 6 months, in comparison to Vitamin D3 and placebo
Excerpt: The design is a parallel group, randomized, placebo-controlled, double-blind study with three different application groups. Each group has an appropriate number of participants (e.g., 20 participants). Eligibility is defined as being 65 years or older and being frail or pre-frail. Frailty is defined as having unintentional weight loss, weakness, self-reported exhaustion, slow walking speed, and/or low physical activity (see Fried L P, et al. Frailty in older adults: evidence for a phenotype. J Gerontol A Biol Sci Med. Sci. March 2001; 56(3):[…]-156.) A participant is classified as pre-frail when one or two of the aforementioned criteria are met, while frail is classified when three or more criteria are present. […] The duration of supplementation is 6 months (180 days). […] Double-blind randomization is carried out by means of a label code associated with a specific participant ID number, whose meaning is known only to the supplier. Participants are allocated randomly to these numbers. For baseline (Day 0) the following tests are performed: […] […] Executive functioning test batteries include the following standard tests of executive functioning: Trail Making Tests A and B (to determine the ratio of TMT-B/TMT-A), Stroop Colour-Word Test, including determining the Stroop ratio, calculated by Stroop card 3/((Stroop card 1+Stroop card 2)/2) and animal fluency test. […]

[3] = Example 2 placebo-controlled trial: serum/plasma 25-OH D3 level in frail elderly; design: species or system human; conditions: in vivo
Excerpt: The design is a parallel group, randomized, placebo-controlled, double-blind study with three different application groups. Each group has an appropriate number of participants (e.g., 20 participants). Eligibility is defined as being 65 years or older and being frail or pre-frail. Frailty is defined as having unintentional weight loss, weakness, self-reported exhaustion, slow walking speed, and/or low physical activity (see Fried L P, et al. Frailty in older adults: evidence for a phenotype. J Gerontol A Biol Sci Med. Sci. […] A participant is classified as pre-frail when one or two of the aforementioned criteria are met, while frail is classified when three or more criteria are present. […] The duration of supplementation is 6 months (180 days). […] Double-blind randomization is carried out by means of a label code associated with a specific participant ID number, whose meaning is known only to the supplier. Participants are allocated randomly to these numbers. For baseline (Day 0) the following tests are performed: […] Baseline evaluation is followed by the randomization of the subjects. From Day 2 on, they start to take the study compounds. […] For the combination administration, the same ranges of both actives are administered. At visits on Day 90 and Day 180 the following tests are performed: […]

healthy adults under 65 = test: Example 3 placebo-controlled trial: executive function tests in the general adult population; type: in vivo, human; conditions: healthy adults under 65, 6 months
Procedure: The design is a parallel group, randomized, placebo-controlled, double-blind study similar to that of Example 2, above, except that the participants are healthy adults under 65. The duration of supplementation is 6 months (180 days). Group size is chosen so that a statistically significant difference, if present, may be observed between placebo and test groups. […] Double-blind randomization is carried out by means of a label code associated with a specific participant ID number, whose meaning is known only to the supplier. Participants are allocated randomly to these numbers. For baseline (Day 0) the following tests are performed: […] Baseline evaluation is followed by the randomization of the subjects. From Day 2 on, they start to take the study compounds. At visits on Day 90 and Day 180 the following tests are performed: […] Executive functioning test batteries include the following standard tests of executive functioning: Trail Making Tests A and B (to determine the ratio of TMT-B/TMT-A), Stroop Colour-Word Test, including determining the Stroop ratio, calculated by Stroop card 3/((Stroop card 1+Stroop card 2)/2) and animal fluency test. These tests are always performed at the same time of the day.

## C=C1CC[C@H](O)C/C1=C/C=C1\CCC[C@]2(C)[C@@H]([C@H](C)CCCC(C)(C)O)CC[C@@H]12 [25(OH)D, 25-hydroxyvitamin D3]
[1]
  25-OH D serum level: significantly increases
[2]
  Improvement of executive functioning: significantly higher effect
[3]
  25-OH D serum level: significantly increases
Healthy adults under 65
  Executive function in comparison to placebo: Positive results
